Measurements taken from patent US20210253718A1, “FRIZZLED5 PROTEIN-BINDING AGENTS” (Modmab Therapeutics Corporation, priority 2016, published 2021).

Experiments:
Assay type in all cases: cell-based, human
ASPC-1 cells = assay: Cell viability assay (Alamar Blue) in PDAC cell lines, LGK974 comparator
PaTu-8988S cells = assay: as above
MUC5AC = assay: RT-qPCR of differentiation induced gene MUC5AC; conditions: RNF43-mutant PDAC cells
Procedure: Reverse transcription and quantitative real-time PCR: After indicated treatments, cells were lysed in Tri-reagent (BioShop Canada #TSS120) and RNA extracted using the manufacturer's protocol. RNA concentration was quantified with Nanodrop1000 (Thermo Scientific) and 2 micrograms of RNA per sample was DNase I treated (ThermoFisher #AM2222). DNase treated RNA was used to make cDNA with High-Capacity cDNA Reverse Transcription Kit (ThermoFisher #4368813). Real-time PCR was performed using Power SYBR Green Master Mix on the 7900HT Fast Real-Time PCR system. Primer pairs are listed below. Analysis was done using the comparative cycle threshold (CT) method (Bookout et al., 2006) with all samples normalized to PPIB (cyclophilin B) expression. To validate the screen results HPAF-II cells were first infected with lentivirus coding for various gRNAs, transduced cells were selected for 48 hours and plated in clonogenic growth assays. […] In contrast, the growth of PANC-1 and BxPC-3 cell lines, which are wild-type for RNF43, was not inhibited by gRNAs targeting FZD5, FZD7 or CTNNB1 (FIG. 4C and FIG. 5).

HPAF-II cells = assay: Crystal violet staining proliferation (clonogenic growth) assay; conditions: 100 nM LGK974
Procedure: Crystal Violet Staining Proliferation Assay: HPAFII Cas9 cells were transduced with lentivirus generated with the indicated pLCKO plasmid as described above. 24 hours after infection cells were treated with puromycin. After 48 hours of selection, cells were PBS washed extensively, dissociated and counted. 2000 cells per well were re-seeded in 24-well format in media without puromycin. 24 hours post seeding, indicated wells were treated with DMSO control or 100 nM LGK974 (Cayman Chemical #14072) (note that these wells were from the LacZ gRNA population). Medium was renewed every 3-4 days and cells were fixed, 10 days post plating, using 100% ice-cold methanol. After fixation cells were stained with 0.5% crystal violet, 25% methanol solution for 20 minutes at room temperature, after which staining solution was removed and plates were washed several times in dH2O.
To validate the screen results HPAF-II cells were first infected with lentivirus coding for various gRNAs, transduced cells were selected for 48 hours and plated in clonogenic growth assays. […] In contrast, the growth of PANC-1 and BxPC-3 cell lines, which are wild-type for RNF43, was not inhibited by gRNAs targeting FZD5, FZD7 or CTNNB1 (FIG. 4C and FIG. 5).

Cc1cc(-c2ncc(CC(=O)Nc3ccc(-c4cnccn4)cn3)cc2C)ccn1 [LGK974]
growth (cell viability) (ASPC-1 cells): inhibited the growth
growth (cell viability) (PaTu-8988S cells): inhibited the growth
expression of the differentiation marker MUC5AC (MUC5AC): increased expression
growth in clonogenic growth assay (HPAF-II cells): robust growth inhibition
